Active and inactive are the calls of the source. The rule behind the calls is not given here.
Assays:
NCI-H522 = test: Anticancer activity against human NCI-H522 cells assessed as lethality incubated for 48 hrs by SRB assay; type: functional; details: read-out: LC50 (the source's name)
[1] = Cytotoxicity against mitogen activated human peripheral blood lymphocytes assessed as cell growth inhibition incubated for 48 hrs by MTT assay; type: toxicity, cell-based, Lymphocyte
HCC 2998 = test: Anticancer activity against human HCC 2998 cells assessed as total growth inhibition incubated for 48 hrs by SRB assay; type: functional
Hs-578T [2] = test: Anticancer activity against human Hs-578T cells assessed as growth inhibition incubated for 48 hrs by SRB assay; type: functional
IGROV-1 [3] = test: Anticancer activity against human IGROV-1 cells assessed as total growth inhibition incubated for 48 hrs by SRB assay; type: functional
HL-60 [4] = test: Anticancer activity against human HL-60 cells assessed as growth inhibition incubated for 48 hrs by SRB assay; type: functional
NCI-H322M = test: Anticancer activity against human NCI-H322M cells assessed as total growth inhibition incubated for 48 hrs by SRB assay; type: functional
SNB-19 = test: Anticancer activity against human SNB-19 cells assessed as total growth inhibition incubated for 48 hrs by SRB assay; type: functional
HL-60 [5] = test: Anticancer activity against human HL-60 cells assessed as lethality incubated for 48 hrs by SRB assay; type: functional; details: read-out: LC50 (the source's name)
NCI-H460 [6] = test: Anticancer activity against human NCI-H460 cells assessed as lethality incubated for 48 hrs by SRB assay; type: functional; details: read-out: LC50 (the source's name)
SF-295 = test: Anticancer activity against human SF-295 cells assessed as lethality incubated for 48 hrs by SRB assay; type: functional; details: read-out: LC50 (the source's name)
HCT-15 = test: Anticancer activity against human HCT-15 cells assessed as growth inhibition incubated for 48 hrs by SRB assay; type: functional
NCI-H23 = test: Anticancer activity against human NCI-H23 cells assessed as lethality incubated for 48 hrs by SRB assay; type: functional; details: read-out: LC50 (the source's name)
SK-OV-3 [7] = test: Anticancer activity against human SK-OV-3 cells assessed as growth inhibition incubated for 48 hrs by SRB assay; type: functional
SK-OV-3 [8] = test: Anticancer activity against human SK-OV-3 cells assessed as total growth inhibition incubated for 48 hrs by SRB assay; type: functional
RXF 393 = test: Anticancer activity against human RXF 393 cells assessed as growth inhibition incubated for 48 hrs by SRB assay; type: functional
[9] = Selectivity index, ratio of GI50 for human HaCaT cells to GI50 for human HCT-116 cells; type: toxicity; details: HaCaT cells versus HCT-116 cells, read-out: RatioGI50
[10] = Selectivity index, ratio of GI50 for human HaCaT cells to GI50 for human HCT116-p53-null cells; type: toxicity; details: HaCaT cells versus HCT116-p53-null cells, read-out: RatioGI50
RPMI-8226 = test: Anticancer activity against human RPMI-8226 cells assessed as total growth inhibition incubated for 48 hrs by SRB assay; type: functional
EKVX = test: Anticancer activity against human EKVX cells assessed as growth inhibition incubated for 48 hrs by SRB assay; type: functional
NCI-H460 [11] = test: Anticancer activity against human NCI-H460 cells assessed as growth inhibition incubated for 48 hrs by SRB assay; type: functional
COLO 205 = test: Anticancer activity against human COLO 205 cells assessed as lethality incubated for 48 hrs by SRB assay; type: functional; details: read-out: LC50 (the source's name)
NCI/ADR-RES = test: Anticancer activity against human NCI/ADR-RES cells assessed as growth inhibition incubated for 48 hrs by SRB assay; type: functional
IGROV-1 [12] = test: Anticancer activity against human IGROV-1 cells assessed as growth inhibition incubated for 48 hrs by SRB assay; type: functional
UO-31 = test: Anticancer activity against human UO-31 cells assessed as total growth inhibition incubated for 48 hrs by SRB assay; type: functional
OVCAR-4 = test: Anticancer activity against human OVCAR-4 cells assessed as lethality incubated for 48 hrs by SRB assay; type: functional; details: read-out: LC50 (the source's name)
OVCAR-8 = test: Anticancer activity against human OVCAR-8 cells assessed as total growth inhibition incubated for 48 hrs by SRB assay; type: functional
SF-268 = test: Anticancer activity against human SF-268 cells assessed as total growth inhibition incubated for 48 hrs by SRB assay; type: functional
CAKI-1 = test: Anticancer activity against human CAKI-1 cells assessed as total growth inhibition incubated for 48 hrs by SRB assay; type: functional
LOX IMVI = test: Anticancer activity against human LOX IMVI cells assessed as inhibition of cell growth at 10 uM incubated for 48 hrs by SRB assay; values are per cent of control
MOLT-4 [13] = test: Anticancer activity against human MOLT-4 cells assessed as total growth inhibition incubated for 48 hrs by SRB assay; type: functional
MCF7 = test: Anticancer activity against human MCF7 cells assessed as total growth inhibition incubated for 48 hrs by SRB assay; type: functional
MDA-MB-468 = test: Anticancer activity against human MDA-MB-468 cells assessed as lethality incubated for 48 hrs by SRB assay; type: functional; details: read-out: LC50 (the source's name)
Jurkat = test: Induction of morphological changes in human Jurkat cells assessed as change in cell shape incubated for 24 hrs by Hoechst 33258 and propidium iodide staining based fluorescence microscopy; type: functional
KB 3-1 = test: Anticancer activity against human KB 3-1 cells assessed as cell growth inhibition incubated for 72 hrs by MTT assay; type: functional
SK-MEL-5 = test: Anticancer activity against human SK-MEL-5 cells assessed as growth inhibition incubated for 48 hrs by SRB assay; type: functional
[14] = Selectivity index, ratio of GI50 for human HaCaT cells to GI50 for human KB 3-1 cells; type: toxicity; details: HaCaT cells versus KB 3-1 cells, read-out: RatioGI50
IGROV-1 [15] = test: Anticancer activity against human IGROV-1 cells assessed as lethality incubated for 48 hrs by SRB assay; type: functional; details: read-out: LC50 (the source's name)
TK-10 = test: Anticancer activity against human TK-10 cells assessed as total growth inhibition incubated for 48 hrs by SRB assay; type: functional
SK-OV-3 [16] = test: Anticancer activity against human SK-OV-3 cells assessed as lethality incubated for 48 hrs by SRB assay; type: functional; details: read-out: LC50 (the source's name)
MOLT-4 [17] = test: Anticancer activity against human MOLT-4 cells assessed as growth inhibition incubated for 48 hrs by SRB assay; type: functional
SN12C = test: Anticancer activity against human SN12C cells assessed as lethality incubated for 48 hrs by SRB assay; type: functional; details: read-out: LC50 (the source's name)
Hs-578T [18] = test: Anticancer activity against human Hs-578T cells assessed as total growth inhibition incubated for 48 hrs by SRB assay; type: functional
UACC-62 = test: Anticancer activity against human UACC-62 cells assessed as total growth inhibition incubated for 48 hrs by SRB assay; type: functional
HCT-116 = test: Anticancer activity against human HCT-116 cells assessed as growth inhibition incubated for 48 hrs by SRB assay; type: functional
[19] = Selectivity index, ratio of GI50 for human HaCaT cells to GI50 for human MDA-MB-231 cells; type: toxicity; details: HaCaT cells versus MDA-MB-231 cells, read-out: RatioGI50
SW-620 = test: Anticancer activity against human SW-620 cells assessed as growth inhibition incubated for 48 hrs by SRB assay; type: functional
Malme-3M = test: Anticancer activity against human Malme-3M cells assessed as growth inhibition incubated for 48 hrs by SRB assay; type: functional

O=C1CC(N2C(=O)/C(=C/C(Cl)=C/c3ccc([N+](=O)[O-])cc3)SC2=S)C(=O)N1c1ccc(Cl)cc1 (stereo not drawn)
CC50 (NCI-H522): 14.1 µM | GI50 at 48 h [1]: 28.9 µM | TGI (HCC 2998): 3.03 µM | GI50 (Hs-578T [2]): 1.8 µM | TGI (IGROV-1 [3]): 3.26 µM | GI50 (HL-60 [4]): 1.45 µM | TGI (NCI-H322M): > 100 µM | TGI (SNB-19): 2.97 µM | CC50 (HL-60 [5]): > 100 µM | CC50 (NCI-H460 [6]): > 100 µM | CC50 (SF-295): 7.51 µM | GI50 (HCT-15): 0.599 µM | CC50 (NCI-H23): 15 µM | GI50 (SK-OV-3 [7]): 3.56 µM | TGI (SK-OV-3 [8]): > 100 µM | GI50 (RXF 393): 1.26 µM | selectivity ratio [9]: 10.9 | selectivity ratio [10]: 10.7 | TGI (RPMI-8226): 0.979 µM | GI50 (EKVX): 3.11 µM | GI50 (NCI-H460 [11]): 3.3 µM | CC50 (COLO 205): > 100 µM | GI50 (NCI/ADR-RES): 1.01 µM | GI50 (IGROV-1 [12]): 1.03 µM | TGI (UO-31): 3.3 µM | CC50 (OVCAR-4): > 100 µM | TGI (OVCAR-8): > 100 µM | TGI (SF-268): > 100 µM | TGI (CAKI-1): 3.28 µM | growth percent at 10 µM (LOX IMVI): -71.7% | TGI (MOLT-4 [13]): 13.4 µM | TGI (MCF7): > 100 µM | CC50 (MDA-MB-468): 7.22 µM | Activity (Jurkat): Active | GI50 (KB 3-1): 70.3 µM | GI50 (SK-MEL-5): 1.95 µM | selectivity ratio [14]: 1.42 | CC50 (IGROV-1 [15]): 49.6 µM | TGI (TK-10): 8.63 µM | CC50 (SK-OV-3 [16]): > 100 µM | GI50 (MOLT-4 [17]): 0.596 µM | CC50 (SN12C): > 100 µM | TGI (Hs-578T [18]): > 100 µM | TGI (UACC-62): 4.3 µM | GI50 (HCT-116): 1.35 µM | selectivity ratio [19]: 15.5 | GI50 (SW-620): 0.508 µM | GI50 (Malme-3M): 3.09 µM

— ChEMBL document CHEMBL5113392, “Novel hybrid pyrrolidinedione-thiazolidinones as potential anticancer agents: Synthesis and biological evaluation” (Eur J Med Chem, 2022)
